# Reference: patent US9261498B2, “Biomarker for sensitivity to mTOR inhibitor therapy in kidney cancer” (The Regents of the University of California, priority 2005, dated 2016)
# “Also recorded” adds a separate entry of the source.
# System: HIF-1α
# Assay: Immunoblot of HIF-1α protein in VHL knockdown RCC cells
# Type: cell-based, human
# Conditions: 1 and 10 nM CCI-779, 24 hours
# Experimental: (a) SN12C-CSCG and SN12C-VHLshRNA cell were treated with vehicle, 1 nM or 10 nM of CCI-779 and lysed 24 hours later. Lysates were subjected to immunoblotting for HIF-1α, HIF-2α, GLUT-1, CA-IX, p-eIF4G, p-S6 Ribosomal protein. Equal protein loading was verified using anti-β-actin antibody. (b) HIF-1α expression was probed by immunoblotting in SN12C-MSCV-5′TOP-HIF-1α cDNA (left panel) and SN12C-MSCV-HIF-1α cDNA (tight panel) post 24 hours of vehicle, 1 nM or 10 nM of CCI-779.
# Cells and xenograft tumors were lysed in ECB lysis buffer (see, e.g. Kondo et al., Cancer Cell 1, 237-46 (2002)) or high-detergent buffer (2% SDS), (see, e.g. Chen et al., Nat Med 10, 33-9 (2004)), respectively, supplemented with complete protease and phosphatase inhibitor cocktails (Calbiochem). […] Bound antibody was detected using enhanced chemiluminescence (ECL, Amersham). For VEGF ELISA quantification, cells were plated in 6 well plates (1×10^5 per well). […] Thirty-six hours later, VEGF ELISA (R&D Systems) was performed according to the manufacturer's instructions, using a Fisher Plate reader. […]
# Cells and xenograft tumors were lysed in ECB lysis buffer or high-detergent buffer (2% SDS), respectively, supplemented with complete protease and phosphatase inhibitor cocktails (Calbiochem). […] Bound antibody was detected using enhanced chemiluminescence (ECL, Amersham). […]
compound,measurement,value
CO[C@H]1C[C@@H]2CC[C@@H](C)[C@@](O)(O2)C(=O)C(=O)N2CCCC[C@H]2C(=O)O[C@H]([C@H](C)C[C@@H]2CC[C@@H](OC(=O)C(C)(CO)CO)[C@H](OC)C2)CC(=O)[C@H](C)/C=C(\C)[C@@H](O)[C@@H](OC)C(=O)[C@H](C)C[C@H](C)/C=C/C=C/C=C/1C [CCI-779],HIF-1α protein levels,dramatically reduced; also recorded: reduction; also recorded: decrease
